Measurements from article PMC10311661, “In Silico Discovery of 5′-Modified 7-Deoxy-7-ethynyl-4′-thioadenosine as a HASPIN Inhibitor and Its Synergistic Anticancer Effect with the PLK1 Inhibitor” (ACS Central Science, 2023).

Columns and labels:
Assay in all cases: KINOMEscan (scanMAX) competition binding at […], less than […] of control
Conditions in all cases: read-out: % of control at 100 nM
[1] = target: CLK2 (Homo sapiens, UniProt P49760)
[2] = target: DYRK1A (Homo sapiens, UniProt Q13627)
[3] = target: T1, MEK5 (Homo sapiens, UniProt Q13163)
T1 construct: gene MAP2K5
T1 sequence (Q13163 1-448): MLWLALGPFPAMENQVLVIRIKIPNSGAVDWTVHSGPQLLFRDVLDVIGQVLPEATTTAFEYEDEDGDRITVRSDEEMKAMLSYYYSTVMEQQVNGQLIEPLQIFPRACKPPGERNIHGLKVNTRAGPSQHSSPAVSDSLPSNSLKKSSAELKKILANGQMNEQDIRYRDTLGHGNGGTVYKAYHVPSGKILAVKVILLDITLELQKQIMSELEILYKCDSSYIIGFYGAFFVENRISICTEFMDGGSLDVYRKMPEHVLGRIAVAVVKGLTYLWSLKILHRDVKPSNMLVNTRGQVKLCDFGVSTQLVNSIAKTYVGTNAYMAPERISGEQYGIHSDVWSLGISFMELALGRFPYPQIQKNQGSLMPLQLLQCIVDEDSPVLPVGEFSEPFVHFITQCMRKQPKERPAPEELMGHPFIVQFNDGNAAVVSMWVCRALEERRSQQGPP

Measured: remaining binding at 0.1 µM

CLK2, sequence (P49760 whole entry): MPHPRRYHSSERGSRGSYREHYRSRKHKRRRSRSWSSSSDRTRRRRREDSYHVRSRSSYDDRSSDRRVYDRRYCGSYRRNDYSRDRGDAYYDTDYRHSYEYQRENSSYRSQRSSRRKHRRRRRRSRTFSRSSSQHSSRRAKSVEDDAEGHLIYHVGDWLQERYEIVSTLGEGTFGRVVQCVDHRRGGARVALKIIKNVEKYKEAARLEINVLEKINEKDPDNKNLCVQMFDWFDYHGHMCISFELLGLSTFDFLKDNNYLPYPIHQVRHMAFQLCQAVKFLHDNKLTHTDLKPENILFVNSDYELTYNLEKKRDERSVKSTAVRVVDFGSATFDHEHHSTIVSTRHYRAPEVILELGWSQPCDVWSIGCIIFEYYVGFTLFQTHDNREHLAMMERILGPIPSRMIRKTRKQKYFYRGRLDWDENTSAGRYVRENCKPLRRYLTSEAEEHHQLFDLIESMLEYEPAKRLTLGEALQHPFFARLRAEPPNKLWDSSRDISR

C#Cc1cn([C@@H]2S[C@H](CN=[N+]=[N-])[C@@H](O)[C@H]2O)c2ncnc(N)c12 [compound 7, LJ4827]
< 1%: all assays above
